The values below come from patent publication US11292803B2, “Bioreducible N-oxide-based probes for imaging of hypoxia” (THE BOARD OF TRUSTEES OF THE UNIVERSITY OF ILLINOIS, priority 2018, dated 2022).

The nature of data set [1]: Response to metal ions and reactive oxygen, nitrogen and sulfur species. The note with it: 2 h, 37° C., phosphate buffer pH 7.4. The protocol: FIG. 9. Ratiometric fluorescent turn-on response of HyP-1 (2 μM) in the presence of various metal ions in 0.1 M potassium phosphate buffer (pH 7.4, 0.1% v/v CrEL) after 2 h incubation at 37° C. Concentrations used were 2 mM for Na^+, Mg^2+, K^+ and Ca^2+, and 50 μM for all other metal ions.
FIG. 10. Ratiometric fluorescence turn-on response of HyP-1 (2 μM) in the presence of various reactive oxygen, nitrogen and sulfur species (100 μM) in 0.1 M potassium phosphate buffer (pH 7.4, 0.1% v/v CrEL) after 2 h incubation at 37° C.
(§1) In addition to Fe(II), the response of HyP-1 to a variety of alkali, alkaline earth and transition metals was also determined. […] To further evaluate the stability of HyP-1, a 10 μM solution of the probe was exposed to ambient light and temperature for up to 5 days. Additionally, a 10 μM solution of HyP-1 supplemented with human plasma was incubated at 37° C. for 3 hours. […] As mentioned previously, a major limitation of 2-nitroimidazole-based hypoxia probes is their susceptibility to oxygen-independent reduction via two-electron processes, such as by bacterial nitroreductases. […] Finally, the photostability of both HyP-1 and red-HyP-1 was evaluated via continuous PA image acquisition at 770 nm over the course of 1 hour.

Data set [2] can be described thus: Photostability under continuous PA image acquisition. The note with it: 770 nm, 1 hour. The format is physicochemical. How it is done:
FIG. 16. PA signal (770 nm) at the indicated time points of HyP-1 (dots) and red-HyP-1 (squares) solutions (10 μM in 0.1 M potassium phosphate buffer with 50% v/v EtOH) produced upon continuous image acquisition over the course of 1 h. Reported values represent mean PA signal observed after subtracting background signal produced from tissue-mimicking phantom.
as §1

For a further data set, the system named is 4T1 cells. The data set can be described thus: Ratiometric fluorescence of cells, IVIS Spectrum. The format is cell-based, murine. The note with it: 4T1 cells, 5 μM HyP-1, 4 hours, IVIS Spectrum. The protocol: Ratiometric fluorescence imaging was also performed on 4T1 cells cultured in 6-well plates using an IVIS Spectrum imaging system. Cells were stained with a 5 μM solution of HyP-1 and incubated in either normoxic or hypoxic conditions for 4 hours (FIG. 5c). […] To further verify the in vitro results and determine the cellular factors responsible for HyP-1 reduction, cells were also stained with HyP-1 solutions containing either BIPY or DPI at multiple concentrations and incubated under hypoxic conditions.
Authenticated 4T1 cells were purchased from ATCC. Cells were grown in RPMI 1640 medium supplemented with 10% fetal bovine serum. Cells were cultured at 37° C. in 5% CO2 and 20% 02 for normoxic conditions. Hypoxic cell culture was performed by incubating cells in a sealed container with a Mitsubishi AnaeroPack™ anaerobic gas generator. Hypoxic conditions were verified with the use of a Mitsubishi RT Anaero-Indicator.
For cellular imaging using the IVIS Spectrum imaging system, cells were plated in a 6-well plate at an initial density of 1.7×10^4 cells/mL and allowed to grow until 60-80% confluent (approximately 3 days). Media was removed and cells were washed with PBS. A […] solution of HyP-1 in serum-free medium was added, and cells were incubated under normoxic or hypoxic conditions for 4 hours. For BIPY and DPI experiments, the staining solution was supplemented with the compound at the appropriate concentration, and ratiometric turn-on was reported relative to a vehicle control. Images were obtained using excitation and emission filter sets of 675/720 nm and 745/800 nm. Regions of interest (ROIs) were drawn around cell-containing wells, and ratiometric signal was calculated by determining the ratio of radiant efficiency corresponding to 800 nm and 720 nm emissions.

The nature of data set [3]: PA imaging of compound solutions in tissue-mimicking phantoms. In kind it is physicochemical. The note with it: solutions in tissue-mimicking phantom. The protocol:
FIG. 3. Photophysical characterization of HyP-1 and red-HyP-1. (a) Normalized absorbance (dashed) and emission (solid) spectra of HyP-1 (left) and red-HyP-1 (right). (b) PA spectra of HyP-1 and red-HyP-1. PA images of HyP-1 and red-HyP-1 solutions (10 μM in 0.1 M potassium phosphate buffer (pH 7.4) with 50% EtOH co-solvent) in tissue-mimicking phantoms were obtained, and the mean PA signal corresponding to each compound was plotted as a function of wavelength. Results are presented as mean±SD (n=3). (c) PA signal corresponding to various concentrations of red-HyP-1. […]
The significant change in the absorbance profiles of these compounds can be attributed to disruption of the electron donating capability of the aniline in its N-oxide form. This chemical modification is akin to protonation of the aniline, which has been previously shown to result in similar shifts in the absorbance. The 90 nm separation in absorbance is essential to the probes design as it allows us to readily distinguish each species by selective excitation and subsequent detection using both PA and fluorescence imaging. […] Additionally, because HyP-1 and red-HyP-1 have spectrally resolved emission profiles, ratiometric imaging can be performed by determining the ratio of their fluorescence emission intensities. […]

The nature of data set [4]: Photophysical characterization (absorbance, emission, extinction coefficient, quantum yield). The format is physicochemical. The note with it: Table 2.

On to `CC[N+]([O-])(CC)c1ccc(-c2cc(-c3ccccc3)c3n2[B-](F)(F)[N+]2=C(c4ccc(OC)cc4)C=C(c4ccccc4)C2=N3)cc1` [HyP-1, 4-(5,5-difluoro-7-(4-methoxyphenyl)-1,9-diphenyl-5H-5λ^4,6λ^4-dipyrrolo[1,2-c:2′,1′-f][1,3,5,2]triazaborinin-3-yl)-N,N-diethylaniline oxide], for which the “turn-on response to alkali, alkaline earth and transition metals” value in data set [1] was “No significant turn-on”. Moreover, in data set [2], the “PA intensity during continuous acquisition (photostability)” value is “remained unchanged”. Also, the “ratiometric response, hypoxic versus normoxic wells” value with 4T1 cells came to 2.5 fold. Moreover, the “PA signal at 770 nm” value in data set [3] is on record as “no signal”. In data set [4], the Φ is listed as 0.33, the ε is listed as 1.5 × 10^4 M^−1 · cm^1 and the λabs was found to be 670 nm.

As for `CCN(CC)c1ccc(-c2cc(-c3ccccc3)c3n2[B-](F)(F)[N+]2=C(c4ccc(OC)cc4)C=C(c4ccccc4)C2=N3)cc1` [Red-HyP-1, 4-(5,5-difluoro-7-(4-methoxyphenyl)-1,9-diphenyl-5H-5λ^4,6λ^4-dipyrrolo[1,2-c:2′,1′-f][1,3,5,2]triazaborinin-3-yl)-N,N-diethylaniline], the “PA intensity during continuous acquisition (photostability)” value in data set [2] is given as “remained unchanged”. In addition, in data set [3], the “PA signal at 770 nm” value is reported as “strong PA signal”. For the same compound, in data set [4], the Φ was found to be 0.11, the ε is recorded as 5.4 × 10^4 M^−1 · cm^1 and the λabs was 760 nm.
